For 24 compounds, Emax results are on record in patent US8394969B2, “Cyclic benzimidazole derivatives useful as anti-diabetic agents” (Merck Sharp & Dohme Corp., priority 2008, dated 2013).

Each structure is given as a SMILES string. Counter-ions that a name gives are not always drawn.

The assay addresses recombinant human AMPK complex 1 (containing α1β1γ1) (Homo sapiens, UniProt Q13131+Q9Y478). Nature of the assay: […] (in vitro AMPK activation assay). The assay is classed as biochemical. Conditions: recombinant human AMPK complex 1 (α1β1γ1); basal activity subtracted; read-out: % Maximum AMP Activation of human AMPK Complex 1.

Chain of recombinant human AMPK complex 1 (containing α1β1γ1) (Q13131 whole entry): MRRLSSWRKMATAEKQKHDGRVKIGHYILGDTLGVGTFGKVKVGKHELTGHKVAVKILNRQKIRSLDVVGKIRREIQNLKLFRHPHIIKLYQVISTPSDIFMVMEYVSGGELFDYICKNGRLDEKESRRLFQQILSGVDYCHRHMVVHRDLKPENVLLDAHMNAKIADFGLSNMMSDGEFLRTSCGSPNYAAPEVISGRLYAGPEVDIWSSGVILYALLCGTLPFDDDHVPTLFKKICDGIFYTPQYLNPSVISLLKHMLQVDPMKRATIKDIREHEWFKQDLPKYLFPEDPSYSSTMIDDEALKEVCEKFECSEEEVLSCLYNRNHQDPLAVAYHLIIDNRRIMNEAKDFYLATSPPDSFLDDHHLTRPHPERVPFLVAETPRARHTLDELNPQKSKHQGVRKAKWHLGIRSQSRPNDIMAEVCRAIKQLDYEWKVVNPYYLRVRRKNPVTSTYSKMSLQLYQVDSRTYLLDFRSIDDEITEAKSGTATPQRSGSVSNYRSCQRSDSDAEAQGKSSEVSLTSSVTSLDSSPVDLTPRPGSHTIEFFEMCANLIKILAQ
Chain of recombinant human AMPK complex 1 (containing α1β1γ1) (Q9Y478 whole entry): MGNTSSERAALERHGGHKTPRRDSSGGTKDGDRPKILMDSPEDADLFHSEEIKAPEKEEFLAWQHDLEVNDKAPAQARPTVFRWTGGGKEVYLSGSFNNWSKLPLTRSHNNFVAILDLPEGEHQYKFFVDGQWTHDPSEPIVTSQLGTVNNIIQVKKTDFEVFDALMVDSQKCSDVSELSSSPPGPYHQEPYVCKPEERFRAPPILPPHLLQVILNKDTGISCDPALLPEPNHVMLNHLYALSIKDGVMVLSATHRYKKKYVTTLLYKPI
Chain of recombinant human AMPK complex 1 (containing α1β1γ1) (P54619 whole entry partner): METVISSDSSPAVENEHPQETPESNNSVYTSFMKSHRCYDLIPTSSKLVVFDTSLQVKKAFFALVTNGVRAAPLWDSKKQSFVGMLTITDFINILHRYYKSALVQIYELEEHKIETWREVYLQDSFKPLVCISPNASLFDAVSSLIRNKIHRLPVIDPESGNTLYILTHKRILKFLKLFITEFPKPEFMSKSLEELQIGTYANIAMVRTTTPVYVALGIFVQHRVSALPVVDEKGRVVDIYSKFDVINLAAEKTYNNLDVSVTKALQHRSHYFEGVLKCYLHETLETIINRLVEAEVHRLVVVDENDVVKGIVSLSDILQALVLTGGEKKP

On to `Cc1ccc(Oc2nc3cc(-c4ccc(C(=O)O)c5c4c(C)cn5C)c(Cl)cc3[nH]2)cc1C(=O)O` [Example 270, 4-[2-(3-Carboxy-4-methyl-phenoxy)-6-chloro-1H-benzoimidazol-5-yl]-1,3-dimethyl-1H-indole-7-carboxylic acid], for which the Emax is over 80%.
As for `Cc1ccc(Oc2nc3cc(-c4ccc(C(=O)O)c5c4ccn5C)c(Cl)cc3[nH]2)cc1C(=O)O` [Example 271, 4-[2-(3-Carboxy-4-meihyl-phenoxy)-6-chloro-1H-benzoimidazol-5-yl]-1-methyl-1H-indole-7-carboxylic acid], the Emax was over 80%.
Next, `Cc1ccc(Oc2nc3cc(-c4ccc(C(C)C)c5c4ccn5C)c(Cl)cc3[nH]2)cc1C(=O)O` [Example 272, 5-[6-Chloro-5-(7-isopropyl-1-methyl-1H-indol-4-yl)-1H-benzoimidazol-2-yloxy]-2-methyl-benzoic acid]: over 80%; `Cc1ccc(Oc2nc3cc(-c4ccc(C(C)C)c5[nH]ccc45)c(Cl)cc3[nH]2)cc1C(=O)O` [Example 273, 5-[6-Chloro-5-(7-isopropyl-1H-indol-4-yl)-1H-benzoimidazol-2-yloxy]-2-methyl-benzoic acid]: over 80%.
For `Cc1ccc(Oc2nc3cc(-c4ccc5c(c4)cc(CO)n5C)c(Cl)cc3[nH]2)cc1C(=O)O` [Example 274, 5-[6-Chloro-5-(2-hydroxymethyl-1-methyl-1H-indol-5-yl)-1H-benzoimidazol-2-yloxy]-2-methyl-benzoic acid], the Emax was over 80%.
Next, `Cc1ccc(Oc2nc3cc(-c4ccc5c(c4)cc(C(=O)O)n5C)c(Cl)cc3[nH]2)cc1C(=O)O` [Example 275, 5-[2-(3-Carboxy-4-methyl-phenoxy)-6-chloro-1H-benzoimidazol-5-yl]-1-methyl-1H-indole-2-carboxylic acid]: over 80%.
Next, `CCN1CCc2cc(-c3cc4nc(Oc5ccc(C)c(C(=O)O)c5)[nH]c4cc3Cl)ccc21` [Example 276, 5-[6-Chloro-5-(1-ethyl-2,3-dihydro-1H-indol-5-yl)-1H-benzoimidazol-2-yloxy]-2-methyl-benzoic acid]: over 80%.
The value for `Cc1ccc(Oc2nc3cc(-c4ccc5c(c4)cc(-c4ccccc4)n5C)c(Cl)cc3[nH]2)cc1C(=O)O` [Example 277, 5-[6-Chloro-5-(1-methyl-2-phenyl-1H-indol-5-yl)-1H-benzoimidazol-2-yloxy]-2-methyl-benzoic acid] was over 80%; that for `Cc1ccc(Oc2nc3cc(-c4ccc5[nH]c(-c6ccccc6)cc5c4)c(Cl)cc3[nH]2)cc1C(=O)O` [Example 278, 5-[6-Chloro-5-(2-phenyl-1H-indol-5-yl)-1H-benzoimidazol-2-yloxy]-2-methyl-benzoic acid] was over 80%.
With `Cc1ccc(Oc2nc3cc(-c4ccc5c(c4)CCN5C(C)C)c(Cl)cc3[nH]2)cc1C(=O)O` [Example 279, 5-[6-Chloro-5-(1-isopropyl-2,3-dihydro-1H-indol-5-yl)-1H-benzoimidazol-2-yloxy]-2-methyl-benzoic acid], the Emax was over 80%.
Next, `Cc1ccc(Oc2nc3cc(-c4ccc5cnccc5c4)c(Cl)cc3[nH]2)cc1C(=O)O` [Example 280, 5-(6-Chloro-5-isoquinolin-6-yl-1H-benzoimidazol-2-yloxy)-2-methyl-benzoic acid]: over 80%.
Next, `Cc1ccc(Oc2nc3cc(-c4ccc5c(c4)c4c(n5C)CCC4)c(Cl)cc3[nH]2)cc1C(=O)O` [Example 281, 5-[6-Chloro-5-(4-methyl-1,2,3,4-tetrahydro-cyclopenta[b]indol-7-yl)-1H-benzoimidazol-2-yloxy]-2-methyl-benzoic acid]: over 80%.
Next, `Cc1ccc(Oc2nc3cc(-c4ccc5c(c4)CCN5C)c(Cl)cc3[nH]2)cc1C(=O)O` [Example 282, 5-[6-Chloro-5-(1-methyl-2,3-dihydro-1H-indol-5-yl)-1H-benzoimidazol-2-yloxy]-2-methyl-benzoic acid]: over 80%.
In the case of `Cc1ccc(Oc2nc3cc(-c4cccc5c4ccn5C)c(Cl)cc3[nH]2)cc1C(=O)O` [Example 283, 5-[6-Chloro-5-(1-methyl-1H-indol-4-yl)-1H-benzoimidazol-2-yloxy]-2-methyl-benzoic acid], the Emax was over 80%.
The value for `Cc1ccc(Oc2nc3cc(-c4ccc5ccn(C)c5c4)c(Cl)cc3[nH]2)cc1C(=O)O` [Example 284, 5-[6-Chloro-5-(1-methyl-1H-indol-6-yl)-1H-benzoimidazol-2-yloxy]-2-methyl-benzoic acid] was over 80%.
Next, `Cc1ccc(Oc2nc3cc(-c4ccc5c(c4)CCN5)c(Cl)cc3[nH]2)cc1C(=O)O` [Example 285, 5-[6-Chloro-5-(2,3-dihydro-1H-indol-5-yl)-1H-benzoimidazol-2-yloxy]-2-methyl-benzoic acid]: over 80%; `Cc1ccc(Oc2nc3cc(-c4ccc5[nH]cc(C)c5c4)c(Cl)cc3[nH]2)cc1C(=O)O` [Example 287, 5-[6-Chloro-5-(3-methyl-1H-indol-5-yl)-1H-benzoimidazol-2-yloxy]-2-methyl-benzoic acid]: over 80%; `Cc1ccc(Oc2nc3cc(-c4ccc5c(c4)c(C)cn5C)c(Cl)cc3[nH]2)cc1C(=O)O` [Example 288, 5-[6-Chloro-5-(1,3-dimethyl-1H-indol-5-yl)-1H-benzoimidazol-2-yloxy]-2-methyl-benzoic acid]: over 80%.
The value for `Cc1ccc(Oc2nc3cc(-c4ccc5c(c4)cc(C)n5C)c(Cl)cc3[nH]2)cc1C(=O)O` [Example 289, 5-[6-Chloro-5-(1,2-dimethyl-1H-indol-5-yl)-1H-benzoimidazol-2-yloxy]-2-methyl-benzoic acid] was over 80%; that for `Cc1ccc(Oc2nc3cc(-c4ccc5c(C)cn(C(=O)OC(C)(C)C)c5c4)c(Cl)cc3[nH]2)cc1C(=O)O` [Example 290, 6-[2-(3-Carboxy-4-methyl-phenoxy)-6-chloro-1H-benzoimidazol-5-yl]-3-methyl-indole-1-carboxylic acid tert butyl ester] was over 80%.
Take `Cc1ccc(Oc2nc3cc(-c4ccc5c(C)c[nH]c5c4)c(Cl)cc3[nH]2)cc1C(=O)O` [Example 291, 5-[6-Chloro-5-(3-methyl-1H-indol-6-yl)-1H-benzoimidazol-2-yloxy]-2-methyl-benzoic acid]: the Emax was over 80%.
Next, `Cc1ccc(Oc2nc3cc(-c4ccc(C(C)N(C)C)cc4)c(Cl)cc3[nH]2)cc1C(=O)O` (stereo not drawn) [Example 292, 1-{4-[2-(3-carboxy-4-methylphenoxy)-6-chloro-1H-benzimidazol-5-yl]phenyl}-N,N-dimethylethanaminium trifluoroacetate]: over 80%.
The value for `Cc1ccc(Oc2nc3cc(-c4ccc(C(C)N)cc4)c(Cl)cc3[nH]2)cc1C(=O)O` (stereo not drawn) [Example 293, 1-{4-[2-(3-carboxy-4-methylphenoxy)-6-chloro-1H-benzimidazol-5-yl]phenyl}ethanaminium trifluoroacetate] was over 80%; that for `Cc1ccc(Oc2nc3cc(-c4ccc(CN(C)C)cc4)c(Cl)cc3[nH]2)cc1C(=O)O` [Example 294, {4-[2-(3-carboxy-4-methylphenoxy)-6-chloro-1H-benzimidazol-5-yl]phenyl}-N,N-dimethylmethanaminium trifluoroacetate] was over 80%.
